ChEMBL document CHEMBL1155922, “Epiboxidine and novel-related analogues: a convenient synthetic approach and estimation of their affinity at neuronal nicotinic acetylcholine receptor subtypes” (Bioorg Med Chem Lett, 2008)
pKi: −log10 of the molar value.

Tests used:
[1] = target: Neuronal acetylcholine receptor subunit alpha-7 (Rattus norvegicus, UniProt Q05941); test: Displacement of [125I]alpha-bungarotoxin from alpha7 nAChR in rat cortical membrane; assay type: cell membranes
Rattus norvegicus = organism: Rattus norvegicus; test: Selectivity ratio of Ki for rat alpha4beta2 nAChR to Ki for rat alpha7 nAChR
[2] = target: T1, Neuronal acetylcholine receptor; alpha4/beta2 (Rattus norvegicus, UniProt P09483+P12390); test: Displacement of [3H]epibatidine from alpha4beta2 nAChR in rat cortical membrane; assay type: cell membranes
T1 sequence (P09483 whole entry): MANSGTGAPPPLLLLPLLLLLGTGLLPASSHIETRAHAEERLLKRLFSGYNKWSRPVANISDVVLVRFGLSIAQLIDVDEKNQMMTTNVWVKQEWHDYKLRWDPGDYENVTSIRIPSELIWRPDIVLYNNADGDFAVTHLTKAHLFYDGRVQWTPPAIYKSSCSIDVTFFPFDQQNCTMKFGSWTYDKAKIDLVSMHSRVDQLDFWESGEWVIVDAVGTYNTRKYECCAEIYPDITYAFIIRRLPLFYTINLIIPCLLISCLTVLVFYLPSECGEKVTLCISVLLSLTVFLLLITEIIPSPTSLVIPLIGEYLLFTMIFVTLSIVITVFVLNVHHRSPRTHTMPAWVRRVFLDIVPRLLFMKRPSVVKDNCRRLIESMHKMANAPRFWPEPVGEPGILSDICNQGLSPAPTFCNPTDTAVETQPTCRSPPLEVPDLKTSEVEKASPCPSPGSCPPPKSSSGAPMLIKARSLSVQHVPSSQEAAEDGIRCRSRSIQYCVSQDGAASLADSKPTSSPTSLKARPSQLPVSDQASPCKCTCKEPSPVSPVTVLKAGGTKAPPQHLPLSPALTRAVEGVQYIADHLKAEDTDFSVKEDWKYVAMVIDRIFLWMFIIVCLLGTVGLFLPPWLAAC
T1 sequence (P12390 whole entry): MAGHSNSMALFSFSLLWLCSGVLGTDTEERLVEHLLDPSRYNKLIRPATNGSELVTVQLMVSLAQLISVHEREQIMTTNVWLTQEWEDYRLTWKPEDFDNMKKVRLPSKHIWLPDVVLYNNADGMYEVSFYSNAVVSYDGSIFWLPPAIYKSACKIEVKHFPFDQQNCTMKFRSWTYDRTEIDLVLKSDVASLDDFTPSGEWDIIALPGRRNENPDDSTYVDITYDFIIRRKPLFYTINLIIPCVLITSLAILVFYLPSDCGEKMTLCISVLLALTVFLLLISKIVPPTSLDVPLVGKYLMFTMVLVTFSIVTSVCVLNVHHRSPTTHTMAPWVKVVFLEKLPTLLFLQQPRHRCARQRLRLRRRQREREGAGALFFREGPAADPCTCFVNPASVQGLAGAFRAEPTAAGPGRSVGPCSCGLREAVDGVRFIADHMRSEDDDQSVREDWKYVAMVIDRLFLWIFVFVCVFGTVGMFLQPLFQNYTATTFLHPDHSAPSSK

[3] = target: T2, Neuronal acetylcholine receptor; alpha4/beta2 (Homo sapiens, UniProt P17787+P43681); test: Binding affinity to alpha4beta2 nAChR; assay type: protein-complex assay
T2 sequence (P17787 whole entry): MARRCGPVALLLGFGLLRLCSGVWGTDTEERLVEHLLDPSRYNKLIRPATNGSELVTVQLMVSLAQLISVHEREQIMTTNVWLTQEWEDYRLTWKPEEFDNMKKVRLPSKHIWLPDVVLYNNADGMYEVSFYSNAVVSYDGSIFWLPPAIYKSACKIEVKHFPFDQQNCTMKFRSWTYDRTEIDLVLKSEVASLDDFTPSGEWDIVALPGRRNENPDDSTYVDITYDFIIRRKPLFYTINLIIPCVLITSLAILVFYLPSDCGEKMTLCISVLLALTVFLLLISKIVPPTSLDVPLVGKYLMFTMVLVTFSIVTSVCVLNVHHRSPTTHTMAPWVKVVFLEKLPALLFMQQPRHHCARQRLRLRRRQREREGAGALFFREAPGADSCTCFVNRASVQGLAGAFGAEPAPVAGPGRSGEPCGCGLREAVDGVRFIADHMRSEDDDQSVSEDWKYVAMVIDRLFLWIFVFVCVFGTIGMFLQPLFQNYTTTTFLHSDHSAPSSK
T2 sequence (P43681 whole entry): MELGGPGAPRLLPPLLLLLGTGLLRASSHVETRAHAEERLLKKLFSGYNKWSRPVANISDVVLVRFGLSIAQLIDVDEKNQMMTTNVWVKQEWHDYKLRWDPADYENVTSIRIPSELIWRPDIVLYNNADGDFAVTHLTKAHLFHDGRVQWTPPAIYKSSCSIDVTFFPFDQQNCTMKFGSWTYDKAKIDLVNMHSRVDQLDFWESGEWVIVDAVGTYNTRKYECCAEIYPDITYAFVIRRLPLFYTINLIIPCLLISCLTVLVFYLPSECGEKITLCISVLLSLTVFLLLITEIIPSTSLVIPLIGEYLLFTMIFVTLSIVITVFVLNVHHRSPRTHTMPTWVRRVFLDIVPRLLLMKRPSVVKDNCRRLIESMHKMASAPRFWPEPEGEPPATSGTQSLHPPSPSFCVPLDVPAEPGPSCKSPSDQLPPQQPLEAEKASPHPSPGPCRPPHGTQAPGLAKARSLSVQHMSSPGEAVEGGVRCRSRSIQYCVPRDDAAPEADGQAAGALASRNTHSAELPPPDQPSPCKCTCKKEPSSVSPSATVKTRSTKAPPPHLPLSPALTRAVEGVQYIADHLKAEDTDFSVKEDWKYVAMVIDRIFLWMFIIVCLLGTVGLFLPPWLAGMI

[4] = target: T1, Neuronal acetylcholine receptor; alpha4/beta2; test: Displacement of [3H]nicotine from alpha4beta2 nAChR in rat cerebral membrane; assay type: cell membranes
[5] = target: T2, Neuronal acetylcholine receptor; alpha4/beta2; test: Displacement of [3H]cystisine from alpha4beta2 nAChR; assay type: protein-complex assay

Chain of Neuronal acetylcholine receptor subunit alpha-7 (Q05941 whole entry): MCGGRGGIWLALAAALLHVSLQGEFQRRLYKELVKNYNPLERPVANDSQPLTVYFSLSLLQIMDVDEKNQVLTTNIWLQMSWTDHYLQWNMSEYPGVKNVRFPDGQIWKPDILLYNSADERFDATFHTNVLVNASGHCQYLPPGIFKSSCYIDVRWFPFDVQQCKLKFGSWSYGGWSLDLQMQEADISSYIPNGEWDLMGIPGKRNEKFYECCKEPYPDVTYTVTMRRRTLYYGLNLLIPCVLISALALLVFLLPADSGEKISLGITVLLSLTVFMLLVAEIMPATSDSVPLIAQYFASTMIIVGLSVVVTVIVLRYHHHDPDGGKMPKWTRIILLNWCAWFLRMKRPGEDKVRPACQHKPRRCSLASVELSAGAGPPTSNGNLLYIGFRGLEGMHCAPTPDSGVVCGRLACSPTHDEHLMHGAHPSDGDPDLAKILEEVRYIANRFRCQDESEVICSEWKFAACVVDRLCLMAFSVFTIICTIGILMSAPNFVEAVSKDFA

Row | SMILES | pKi [1] | Ratio Ki (Rattus norvegicus) | pKi [2] | pKi [3] | pKi [4] | pKi [5]
1 | Cc1cc(C2=CC3CCC2N3)on1 (racemic) | 5.80 | 32 | 7.30 |  |  | 
2 | Cc1cc(C2=CC3CCC2N3C)on1 (racemic) | 6.40 |  | 6.29 |  |  | 
3 | Cc1cc([C@@H]2C[C@H]3CC[C@H]2N3)on1 (racemic) [ENDO-EPIBOXIDINE] | 6.64 |  | 7.15 |  |  | 
4 | Cc1cc([C@H]2C[C@H]3CC[C@H]2N3)on1 (racemic) [EXO-EPIBOXIDINE] | 8.22 | 15 | 9.40 | 9.34 | 9.22 | 8.88
